Data set [1] in a line: Log BB screen: brain compound level and log BB in mice. The data set is classed as in vivo. The following applies: single i.v. injection; for concentration at 1 h: iv, 10 mg/ml, mouse, brain, read-out: Brain concentration 1 h after application. On the procedure: Screening for brain compound level and log BB was done in mice. Compound was applied by a single i.v. injection. […] At least 3 animals were analyzed per compound. Animals were sacrificed 1 h after compound application and blood was collected by heart puncture. Serum was prepared from blood. Animals were perfused with PBS and brains were collected. Compound level in serum and brain were determined by HPLC-MS/MS analysis. Log BB were calculated as follows: [formula]

The subject of data set [2] is pGlu-Aβ3-42 in transgenic (tg) mice, which overexpress human AβQ3-42. Briefly: Treatment of Aβ-transgenic mice, pGlu-Aβ ELISA of brain homogenates. The data set is classed as in vivo. On the procedure:
6 (1-(1H-benzo[d]imidazol-5-yl)-5-(4-propoxyphenyl)imidazolidine-2,4-dion). Example compound 6 was implemented into the chow and the transgenic animals were treated orally. The treatment is specified in the table below. The mice used in this study were produced as described in WO 2009/034158.
Following treatment, tg mice were sacrificed, the brains were removed from the skull, flushed with ice cold saline and placed shortly on filter paper. Brain tissues without cerebellum were homogenized (Dounce homogenizer) in 2.5 ml 2% SDS in distilled water (SDS wash fraction), sonificated and centrifuged at 75,500×g for 1 hour at 4° C. The supernatant was removed and the pellet resuspended in 0.5 ml 70% formic acid (formic acid fraction) and neutralized by addition of 9.5 ml 1 M Tris solution. The formic acid (FA) is considered as the homogenate containing the highly insoluble Aβ peptides, including pGlu-Aβ species (Kawarabayashi et al., (2001), J. Neurosci. 21, 372-381). Aβx-40, Aβx-42 and Aβ3(pE)-42 specific sandwich ELISAs (all from IBL, Hamburg, Germany) were performed according to the manufacturer's manual. Samples were diluted to fit within the range of the standard curve using EIA buffer, which is supplied with the ELISA kits.
In general terms: In an ELISA, binding on a coated surface is turned into a signal by an enzyme label.

Results on seven compounds are retold here after patent publication US8962860B2, “Inhibitors of glutaminyl cyclase” (Probiodrug AG, priority 2008, dated 2015).

Regarding `O=C1NC(=O)N(c2ccc3[nH]cnc3c2)C1c1ccc(Cl)c(C(F)(F)F)c1` (stereo not shown) [Example 7, 1-(1H-benzo[d]imidazol-5-yl)-5-(4-chloro-3-(trifluoromethyl)phenyl)imidazolidine-2,4-dione], in data set [1], the concentration at 1 h was determined as 38.2 ng/g and the “logBB mouse 1 h after i.v. injection” value is −2.5.

`O=C1NC(=O)N(c2ccc3[nH]cnc3c2)C1c1ccccc1Cl` (stereo not shown) [Example 14, 1-(1H-benzo[d]imidazol-5-yl)-5-(2-chlorophenyl)imidazolidine-2,4-dione]: in data set [1], the concentration at 1 h stood at 20.2 ng/g and the “logBB mouse 1 h after i.v. injection” value was −1.6.

For `Cc1ccc(O)c(C2C(=O)NC(=O)N2c2ccc3[nH]cnc3c2)c1` (stereo not shown) [Example 3, 1-(1H-benzo[d]imidazol-5-yl)-5-(2-hydroxy-5-methylphenyl)imidazolidine-2,4-dione], in data set [1], the concentration at 1 h is 17.1 ng/g and the “logBB mouse 1 h after i.v. injection” value is listed as −1.42.

In the case of `O=C1NC(=O)C2(Cc3ccccc3C2)N1c1ccc2[nH]cnc2c1` [Example 32, 3-(1H-benzimidazol-5-yl)-1,3′-dihydro-2H,5H-spiro[imidazolidine-4,2′-indene]-2,5-dione], in data set [1], the concentration at 1 h worked out at 11.7 ng/g and the “logBB mouse 1 h after i.v. injection” value was −1.2.

Regarding `O=C1NC(=O)N(c2ccc3[nH]cnc3c2)C1c1ccc2nsnc2c1` (stereo not shown) [Example 1, 5-(benzo[c][1,2,5]thiadiazol-6-yl)-1-(1H-benzo[d]imidazol-5-yl)imidazolidine-2,4-dione], in data set [1], the concentration at 1 h came out at 118 ng/g and the “logBB mouse 1 h after i.v. injection” value is listed as −0.67.

For `O=C1NC(=O)N(c2ccc3[nH]cnc3c2)C1c1ccc(Cl)cc1` (stereo not shown) [Example 13, 1-(1H-benzo[d]imidazol-5-yl)-5-(4-chlorophenyl)imidazolidine-2,4-dione], in data set [1], the concentration at 1 h is 31.4 ng/g and the “logBB mouse 1 h after i.v. injection” value is given as −1.4.

For `CCCOc1ccc(C2C(=O)NC(=O)N2c2ccc3[nH]cnc3c2)cc1` (racemic) [Example 6, 1-(1H-benzo[d]imidazol-5-yl)-5-(4-propoxyphenyl)imidazolidine-2,4-dione], the “pGlu-Aβ3-42 concentration in formic acid extracts” value in data set [2] (tg mice treated orally via chow (4.8 g/kg) for two months, vs placebo) is recorded as “significant reduction”. The “pGlu-Aβ3-42 concentration in formic acid extracts, brainstem” value in data set [2] (tg mice treated orally via chow for two months, brainstem) is “below the limit of detection”. In data set [1], the concentration at 1 h was found to be 126 ng/g and the “logBB mouse 1 h after i.v. injection” value was −1.6.
